Measured values taken from patent US20240262808A1, “XANTHINE OXIDASE INHIBITOR” (JIANGSU ATOM BIOSCIENCE AND PHARMACEUTICAL CO., LTD., priority 2021, published 2024).

Assays:
[1] = system: rats with hyperuricemia induced by potassium oxonate; assay: Treatment of hyperuricemia in rats induced by potassium oxonate, serum uric acid; assay type: in vivo, SD rat; conditions: for Uric acid 1 h: 1 h after potassium oxonate; for Uric acid 3 h: 3 h after potassium oxonate; for Uric acid 5 h: 5 h after potassium oxonate; for Uric acid 0 h: before potassium oxonate injection
Method: Compounds 15, 24 and 38 were white powder, and compound 57 was light yellow powder, which was ground with 0.5% CMC-Na before use and prepared into suspension with corresponding concentrations (0.2 and 0.4 mg/mL) for gavage.
SD rat, SPF grade, male, weighing 180-220 g, purchased from Shanghai Slake Experimental Animal Co., Ltd., production license number: SCXK (Hu) 2017-0005, quality certificate number: 20170005050604.
72 SD rats, male, weighed about 200-230 g after one week of acclimatization. […] Drugs for each group were prepared into suspension with corresponding concentration, and the administration volume was 0.5 mL/100 g.
After purchased and fed for acclimatization, the rats in each group were fasted for 12 h, and the model was established by intraperitoneal injection with potassium oxonate at the dose of 300 mg/kg, and each of the test drug groups were administrated once by gavage after model establishment. Blood samples were collected from posterior orbital venous plexus before and 1, 3 and 5 h after potassium oxonate injection, centrifugated at 3500 rpm for 10 min, and 30 μL serum was taken to determine uric acid levels at each time point.
Then in two consecutive days, rat models were established with potassium oxonate by intraperitoneal injection at a dose of 300 mg/kg every day, and each test drug group was administrated once by gavage after model establishment. On the third day of administration, the rats were fasted for 12 h, and with the same test method on the first day, blood samples were collected from the posterior orbital venous plexus before and 1, 3 and 5 h after potassium oxonate injection, centrifuged at 3500 rpm for 10 min, and 30 μL serum was taken to determine the uric acid level at each time point.
The measurement data of each experiment were expressed as (mean)±s (standard deviation). ANOVA-Dunnett T test was used to investigate the significance between groups, and P<0.05 was used as a significant index, P<0.01 was used as a very significant index.

Xanthine Oxidase (XO) = molecular target: T1, Xanthine Oxidase (XO) (Bos taurus, UniProt P80457); assay: Xanthine oxidase activity inhibition test (XO/HRP double enzyme coupling, Ampliflu Red fluorescence); assay type: biochemical; conditions: 30 min preincubation and 30 min reaction at 30° C., pH 7.5; read-out: Xanthine oxidase inhibitor activity IC50
T1 construct: purchased Sigma-Aldrich Co., LLC
T1 sequence (P80457 2-1332 limits assumed): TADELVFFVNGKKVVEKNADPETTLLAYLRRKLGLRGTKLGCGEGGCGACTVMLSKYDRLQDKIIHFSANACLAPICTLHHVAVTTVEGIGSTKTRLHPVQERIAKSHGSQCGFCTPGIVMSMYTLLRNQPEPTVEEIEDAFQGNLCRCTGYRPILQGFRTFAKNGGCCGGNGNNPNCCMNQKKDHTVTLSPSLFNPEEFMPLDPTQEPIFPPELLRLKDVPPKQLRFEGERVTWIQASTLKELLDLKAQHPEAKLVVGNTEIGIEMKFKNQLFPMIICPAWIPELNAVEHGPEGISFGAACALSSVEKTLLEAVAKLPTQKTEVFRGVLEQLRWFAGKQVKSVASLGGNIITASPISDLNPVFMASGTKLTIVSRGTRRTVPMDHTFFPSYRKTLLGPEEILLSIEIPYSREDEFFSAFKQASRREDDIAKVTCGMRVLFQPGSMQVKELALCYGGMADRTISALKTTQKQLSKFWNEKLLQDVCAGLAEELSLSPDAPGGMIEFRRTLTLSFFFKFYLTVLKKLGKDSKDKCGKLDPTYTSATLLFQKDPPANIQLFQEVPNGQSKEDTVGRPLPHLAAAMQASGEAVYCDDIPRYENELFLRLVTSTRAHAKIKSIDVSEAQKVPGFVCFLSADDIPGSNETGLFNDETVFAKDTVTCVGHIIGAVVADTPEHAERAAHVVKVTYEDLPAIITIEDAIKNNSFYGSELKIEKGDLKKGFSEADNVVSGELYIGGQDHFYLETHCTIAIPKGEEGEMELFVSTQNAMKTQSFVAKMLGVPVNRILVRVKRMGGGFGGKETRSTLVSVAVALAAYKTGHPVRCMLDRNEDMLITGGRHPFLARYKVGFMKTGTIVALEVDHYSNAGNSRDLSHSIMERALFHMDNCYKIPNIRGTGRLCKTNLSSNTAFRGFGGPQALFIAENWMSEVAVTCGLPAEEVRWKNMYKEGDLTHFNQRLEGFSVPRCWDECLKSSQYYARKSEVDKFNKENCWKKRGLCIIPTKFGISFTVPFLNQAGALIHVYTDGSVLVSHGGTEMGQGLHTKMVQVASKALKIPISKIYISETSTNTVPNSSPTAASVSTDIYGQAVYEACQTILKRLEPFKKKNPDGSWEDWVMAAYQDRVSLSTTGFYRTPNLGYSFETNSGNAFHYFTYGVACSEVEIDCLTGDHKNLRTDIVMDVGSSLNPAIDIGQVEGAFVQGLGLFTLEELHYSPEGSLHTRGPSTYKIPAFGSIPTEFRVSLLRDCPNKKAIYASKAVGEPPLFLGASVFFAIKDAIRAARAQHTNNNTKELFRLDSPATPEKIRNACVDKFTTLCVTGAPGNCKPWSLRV
Method: A double enzyme coupling reaction of Xanthine Oxidase (XO) and Horseradish Peroxidase (HRP) and their substrates was used to test the activity inhibition of xanthine oxidase. First, xanthine oxidase oxidized hypoxanthine to produce xanthine and hydrogen peroxide, and further oxidized xanthine to produce uric acid and hydrogen peroxide. […] The fluorescence intensity of resorufin was determined by fluorescence enzyme spectrometer in direct proportion to xanthine oxidase activity.
In 96-well polypropylene reaction plate, the test compound was diluted into a 200-fold concentration of solution with DMSO through 2.5-fold serial dilution, and further diluted in ultra-pure water to obtain a series of 3-fold concentration of diluted solution.
Reaction solution A: 6 mU/mL xanthine oxidase solution was prepared in 0.1M Tris-HCl (pH7.5) buffer solution.
Reaction solution B: a mixture of 0.6 U/mL horseradish peroxidase solution, 0.15 mM Ampliflu Red and 0.3 mM hypoxanthine in 0.1M Tris-HCl (pH 7.5) buffer solution. The solution was protected from light at 4° C. and was prepared when it was ready for use.
9 μL reaction solution A was mixed with 3-fold concentration serial dilution solution of 9 μL test compound in a 96-well test plate, placed on a flat plate oscillator, and mixed at 30° C. at 100 rpm for 30 min. Then 9 μL reaction solution B was added. The enzyme reaction was carried out at 30° C. for 30 minutes. The fluorescence intensity at excitation light 530 nm and emission light 590 nm was measured by a microplate reader. The fluorescence intensity of the control without xanthine oxidase was 0%, and that of the control without the test compound was 100%.

patients with gout = conditions: cited from earlier work
[2] = 1-day administration, 1 mg/kg gavage
[3] = 1-day administration, 2 mg/kg gavage
[4] = 3-day administration, 1 mg/kg gavage
[5] = 3-day administration, 2 mg/kg gavage
[6] = 1-day administration, 1 and 2 mg/kg groups, at 1, 3 and 5 h after model establishment
[7] = 3-day administration, 1 and 2 mg/kg groups, at 1, 3 and 5 h after model establishment

Compound | IC50 (Xanthine Oxidase (XO)) | Uric acid 1 h [1, 2] | Uric acid 3 h [1, 2] | Uric acid 5 h [1, 2] | Uric acid 0 h [1, 2] | Uric acid 1 h [1, 3] | Uric acid 3 h [1, 3] | Uric acid 5 h [1, 3] | Uric acid 0 h [1, 3] | Uric acid 1 h [1, 4] | Uric acid 3 h [1, 4] | Uric acid 5 h [1, 4] | Uric acid 0 h [1, 4] | Uric acid 1 h [1, 5] | Uric acid 3 h [1, 5] | Uric acid 5 h [1, 5] | Uric acid 0 h [1, 5] | other results
CC(C)n1nc(C#N)c2cc(-n3ncc(C(=O)O)n3)ccc21 [Compound 24, 2-(3-cyano-1-isopropyl-1H-indazole-5-yl)-2H-1,2,3-triazole-4-formic acid] | 3.65 nM | 96.2 ± 9.3 µmol/L | 131.0 ± 18.9 µmol/L | 96.8 ± 13.6 µmol/L | 65.3 ± 5.8 µmol/L | 96.8 ± 5.4 µmol/L | 126.4 ± 14.4 µmol/L | 105.1 ± 16.6 µmol/L | 77.6 ± 9.2 µmol/L | 105.5 ± 12.7 µmol/L | 155.3 ± 38.2 µmol/L | 102.6 ± 8.3 µmol/L | 87.8 ± 16.2 µmol/L | 97.2 ± 27.5 µmol/L | 104.0 ± 5.8 µmol/L | 97.0 ± 14.6 µmol/L | 90.4 ± 9.1 µmol/L | Serum uric acid level compared with model group ([1]; 1-day administration, 1 and 2 mg/kg groups, at 1 h after model establishment, P<0.01): significantly decreased; Serum uric acid level compared with model group ([1]; 3-day administration, 2 mg/kg group, at 3 h after model establishment, P<0.01): significantly decreased
CC(C)n1nc(C#N)c2cc(-c3ccc(C(=O)O)s3)ccc21 [Compound 28, 2-(3-cyano-1-isopropyl-1H-indazole-5-yl)thiophen-2-formic acid] | 7.91 nM |  |  |  |  |  |  |  |  |  |  |  |  |  |  |  |  | 
CC(C)Cn1nc(C#N)c2cc(-n3cc(C(=O)O)cn3)ccc21 [Compound 32, 1-(3-cyano-1-isobutyl-1H-indazole-5-yl)-1H-pyrazole-4-formic acid] | 5.11 nM |  |  |  |  |  |  |  |  |  |  |  |  |  |  |  |  | 
CCCn1nc(C#N)c2cc(-n3cc(C(=O)O)cn3)ccc21 [Compound 35, 1-(3-cyano-1-propyl-1H-indazole-5-yl)-1H-pyrazole-4-formic acid] | 11.8 nM |  |  |  |  |  |  |  |  |  |  |  |  |  |  |  |  | 
CC(C)n1nc(C#N)c2cc(-n3cc(C(=O)O)cn3)ccc21 [Compound 38, 1-(3-cyano-1-isopropyl-1H-indazole-5-yl)-1H-pyrazole-4-formic acid] | 3.24 nM | 70.6 ± 7.7 µmol/L | 74.6 ± 19.6 µmol/L | 64.3 ± 10.6 µmol/L | 75.6 ± 6.8 µmol/L | 66.5 ± 7.5 µmol/L | 77.4 ± 9.2 µmol/L | 56.8 ± 4.0 µmol/L | 73.1 ± 6.7 µmol/L | 62.1 ± 14.1 µmol/L | 69.4 ± 16.1 µmol/L | 55.1 ± 5.8 µmol/L | 61.0 ± 5.7 µmol/L | 54.4 ± 5.1 µmol/L | 73.1 ± 9.4 µmol/L | 58.1 ± 9.6 µmol/L | 60.9 ± 8.1 µmol/L | Serum uric acid level compared with model group [1, 6]: significantly decreased; Serum uric acid level compared with model group [1, 7]: significantly decreased
N#Cc1cn(C2CCOC2)c2ccc(-n3ncc(C(=O)O)n3)cc12 (stereo not drawn) [Compound 44, 2-[3-cyano-1-(tetrahydrofuran-3-yl)-1H-indole-5-yl]-2H-1,2,3-triazole-4-formic acid] | 9.58 nM |  |  |  |  |  |  |  |  |  |  |  |  |  |  |  |  | 
N#Cc1nn(C2CC2)c2ccc(-n3cc(C(=O)O)cn3)cc12 [Compound 50, 1-(3-cyano-1-cyclopropyl-1H-indazole-5-yl)-1H-pyrazole-4-formic acid] | 9.89 nM |  |  |  |  |  |  |  |  |  |  |  |  |  |  |  |  | 
Cc1nc(-c2ccc(OCC(C)C)c(C#N)c2)sc1C(=O)O [Febuxostat, reference compound] |  | 76.4 ± 11.4 µmol/L | 91.3 ± 13.3 µmol/L | 65.7 ± 12.4 µmol/L | 81.3 ± 7.8 µmol/L | 59.7 ± 6.6 µmol/L | 60.7 ± 15.0 µmol/L |  | 67.2 ± 1.9 µmol/L | 53.0 ± 12.0 µmol/L | 71.4 ± 23.5 µmol/L | 61.1 ± 8.1 µmol/L | 66.0 ± 11.3 µmol/L | 47.5 ± 7.9 µmol/L | 51.8 ± 6.7 µmol/L |  | 65.5 ± 8.8 µmol/L | All-cause mortality, HR (patients with gout; febuxostat vs allopurinol group, 95% CI 1.01-1.47): 1.22; Cardiovascular mortality, HR (patients with gout; febuxostat vs allopurinol group, 95% CI 1.03-1.73): 1.34; Overall risk of adverse cardiovascular events, HR (patients with gout; febuxostat vs allopurinol group, average of 32 months of treatment, 95% CI 0.87-1.23): 1.03; Sudden cardiac death, share of group (patients with gout; patients with gout, per treatment group): 2.7%; Serum uric acid level compared with model group [1, 6]: significantly decreased; Serum uric acid level compared with model group [1, 7]: significantly decreased

Second part, led by results:

IC50 (Xanthine Oxidase (XO)) | Compound | Uric acid 1 h [1, 2] | Uric acid 3 h [1, 2] | Uric acid 5 h [1, 2] | Uric acid 0 h [1, 2] | Uric acid 1 h [1, 3] | Uric acid 3 h [1, 3] | Uric acid 5 h [1, 3] | Uric acid 0 h [1, 3] | Uric acid 1 h [1, 4] | Uric acid 3 h [1, 4] | Uric acid 5 h [1, 4] | Uric acid 0 h [1, 4] | Uric acid 1 h [1, 5] | Uric acid 3 h [1, 5] | Uric acid 5 h [1, 5] | Uric acid 0 h [1, 5] | other results
1.84 nM | CC(C)n1cc(C#N)c2cc(-n3ncc(C(=O)O)n3)ccc21 [Compound 15, 2-(3-cyano-1-isopropyl-1H-indole-5-yl)-2H-1,2,3-triazole-4-formic acid] | 104.3 ± 20.3 µmol/L | 121.6 ± 12.2 µmol/L | 118.4 ± 15.3 µmol/L | 72.0 ± 6.7 µmol/L | 98.1 ± 6.3 µmol/L | 130.7 ± 11.5 µmol/L | 109.7 ± 22.5 µmol/L | 74.1 ± 10.3 µmol/L | 78.4 ± 12.1 µmol/L | 166.1 ± 37.5 µmol/L | 100.0 ± 12.5 µmol/L | 70.9 ± 12.8 µmol/L | 88.2 ± 21.3 µmol/L | 139.8 ± 32.7 µmol/L | 97.6 ± 21.0 µmol/L | 64.1 ± 4.8 µmol/L | Serum uric acid level compared with model group ([1]; 1-day administration, 2 mg/kg group, at 1 h after model establishment, P<0.01): significantly decreased
1.72 nM | N#Cc1cn(CC2CC2)c2ccc(-n3ncc(C(=O)O)n3)cc12 [Compound 41, 2-(3-cyano-1-cyclopropylmethyl-1H-indole-5-yl)-2H-1,2,3-triazole-4-formic acid] |  |  |  |  |  |  |  |  |  |  |  |  |  |  |  |  | 
1.71 nM | N#Cc1cn(C2CCC2)c2ccc(-n3ncc(C(=O)O)n3)cc12 [Compound 47, 2-(3-cyano-1-cyclobutyl-1H-indole-5-yl)-2H-1,2,3-triazole-4-formic acid] |  |  |  |  |  |  |  |  |  |  |  |  |  |  |  |  | 
2.89 nM | CC(C)n1nc(C#N)c2cc(-c3cc(C(=O)O)ccn3)ccc21 [Compound 57, 2-(3-cyano-1-isopropyl-1H-indazole-5-yl) isonicotinic acid] | 74.7 ± 11.3 µmol/L | 99.5 ± 12.4 µmol/L | 85.7 ± 8.5 µmol/L | 71.2 ± 8.3 µmol/L | 64.0 ± 13.5 µmol/L | 107.4 ± 12.5 µmol/L | 94.8 ± 6.4 µmol/L | 74.5 ± 8.9 µmol/L | 57.5 ± 9.3 µmol/L | 75.3 ± 6.3 µmol/L | 90.0 ± 5.9 µmol/L | 70.8 ± 8.6 µmol/L | 63.6 ± 11.7 µmol/L | 75.2 ± 16.9 µmol/L | 81.1 ± 8.0 µmol/L | 72.7 ± 15.6 µmol/L | Serum uric acid level compared with model group [1, 6]: significantly decreased; Serum uric acid level compared with model group ([1]; 3-day administration, 1 and 2 mg/kg groups, at 1 and 3 h after model establishment, P<0.01): significantly decreased
